Measured values published in US11155520B2, “Picolinamides as fungicides” (Dow AgroSciences LLC, priority 2018, dated 2021).

Columns and labels:
Format in all cases: in vivo
Phakopsora pachyrhizi = test: Fungicidal activity: Asian soybean rust (PHAKPA); conditions: High volume, 25 ppm; for PHAKPA 1DP disease control: 1 Day Protectant; for PHAKPA 3DC disease control: 3 Day Curative
Description: Technical grades of materials were dissolved in acetone, which were then mixed with nine volumes of water containing 0.011% Tween 20. The fungicide solutions were applied onto soybean seedlings using an automated booth sprayer to run-off. All sprayed plants were allowed to air dry prior to further handling.
Soybean plants (variety Williams 82) were grown in soil-less Metro mix, with one plant per pot. Two week old seedlings were used for testing. Plants were inoculated either 3 days prior to or 1 day after fungicide treatments. Plants were incubated for 24 h in a dark dew room at 22° C. and 100% relative humidity then transferred to a growth room at 23° C. for disease to develop. Disease severity was assessed on the sprayed leaves.

Alternaria solani = test: Fungicidal activity: tomato early blight (ALTESO); conditions: 1DP test at 100 ppm
Description: Technical grades of materials were dissolved in acetone, which were then mixed with nine volumes of water containing 110 ppm Triton X-100. The fungicide solutions were applied onto wheat seedlings using an automated booth sprayer to run-off. All sprayed plants were allowed to air dry prior to further handling. All fungicides were evaluated using the aforementioned method for their activity vs. all target diseases, unless stated otherwise. Wheat leaf blotch and brown rust activity were also evaluated using track spray applications, in which case the fungicides were formulated as EC formulations, containing 0.1% Trycol 5941 in the spray solutions. Tomato plants (variety Outdoor Girl) were propagated in soil-less Metro mix, with each pot having one plant, and used when 12 to 14 days old. Test plants were inoculated with an aqueous spore suspension of Alternaria solani 24 hr after fungicide treatments. After inoculation the plants were kept in 100% relative humidity (one day in a dark dew chamber followed by two to three days in a lighted dew chamber at 20° C.) to permit spores to germinate and infect the leaf. The plants were then transferred to a growth room at 22° C. for disease to develop. Fungicide formulation, application and disease assessment on the sprayed leaves followed the procedures as described in the Example A.

Cercospora beticola = test: Fungicidal activity: leaf spot of sugar beets (CERCBE); conditions: 1DP test at 100 ppm, sugar beet
Description: Technical grades of materials were dissolved in acetone, which were then mixed with nine volumes of water containing 110 ppm Triton X-100. The fungicide solutions were applied onto wheat seedlings using an automated booth sprayer to run-off. All sprayed plants were allowed to air dry prior to further handling. All fungicides were evaluated using the aforementioned method for their activity vs. all target diseases, unless stated otherwise. Wheat leaf blotch and brown rust activity were also evaluated using track spray applications, in which case the fungicides were formulated as EC formulations, containing 0.1% Trycol 5941 in the spray solutions. Sugar beet plants (variety HH88) were grown in soil-less Metro mix and trimmed regularly to maintain a uniform plant size prior to test. Plants were inoculated with a spore suspension 24 hr after fungicide treatments. Inoculated plants were kept in a dew chamber at 22° C. for 48 hr then incubated in a greenhouse set at 24° C. under a clear plastic hood with bottom ventilation until disease symptoms were fully expressed. Fungicide formulation, application and disease assessment on the sprayed leaves followed the procedures as described in the Example A.

[1] = system: Glomerella lagenarium; Anamorph: Colletotrichum lagenarium; test: Fungicidal activity: cucumber anthracnose (COLLLA); conditions: 1DP test at 100 ppm
Description: Technical grades of materials were dissolved in acetone, which were then mixed with nine volumes of water containing 110 ppm Triton X-100. The fungicide solutions were applied onto wheat seedlings using an automated booth sprayer to run-off. All sprayed plants were allowed to air dry prior to further handling. All fungicides were evaluated using the aforementioned method for their activity vs. all target diseases, unless stated otherwise. Wheat leaf blotch and brown rust activity were also evaluated using track spray applications, in which case the fungicides were formulated as EC formulations, containing 0.1% Trycol 5941 in the spray solutions. Cucumber seedlings (variety Bush Pickle) were propagated in soil-less Metro mix, with each pot having one plant, and used in the test when 12 to 14 days old. Test plants were inoculated with an aqueous spore suspension of Colletotrichum lagenarium 24 hr after fungicide treatments. After inoculation the plants were kept in a dew room at 22° C. with 100% relative humidity for 48 hr to permit spores to germinate and infect the leaf. The plants were then transferred to a growth room set at 22° C. for disease to develop. Fungicide formulation, application and disease assessment on the sprayed leaves followed the procedures as described in the Example A.

Parastagonospora nodorum = test: Fungicidal activity: wheat glume blotch (LEPTNO); conditions: 1DP test at 100 ppm
Description: Technical grades of materials were dissolved in acetone, which were then mixed with nine volumes of water containing 110 ppm Triton X-100. The fungicide solutions were applied onto wheat seedlings using an automated booth sprayer to run-off. All sprayed plants were allowed to air dry prior to further handling. All fungicides were evaluated using the aforementioned method for their activity vs. all target diseases, unless stated otherwise. Wheat leaf blotch and brown rust activity were also evaluated using track spray applications, in which case the fungicides were formulated as EC formulations, containing 0.1% Trycol 5941 in the spray solutions. Wheat plants (variety Yuma) were grown from seed in a greenhouse in 50% mineral soil/50% soil-less Metro mix until the first leaf was fully emerged, with 7-10 seedlings per pot. These plants were inoculated with an aqueous spore suspension of Parastagonospora nodorum 24 hr after fungicide treatments. After inoculation the plants were kept in 100% relative humidity (one day in a dark dew chamber followed by two days in a lighted dew chamber at 20° C.) to permit spores to germinate and infect the leaf. The plants were then transferred to a greenhouse set at 20° C. for disease to develop. Fungicide formulation, application and disease assessment followed the procedures as described in the Example A.

[2] = system: Pseudoperonospora cubensis; test: Fungicidal activity: cucumber downy mildew (PSPECU); conditions: 1DP test at 100 ppm
Description: Technical grades of materials were dissolved in acetone, which were then mixed with nine volumes of water containing 110 ppm Triton X-100. The fungicide solutions were applied onto wheat seedlings using an automated booth sprayer to run-off. All sprayed plants were allowed to air dry prior to further handling. All fungicides were evaluated using the aforementioned method for their activity vs. all target diseases, unless stated otherwise. Wheat leaf blotch and brown rust activity were also evaluated using track spray applications, in which case the fungicides were formulated as EC formulations, containing 0.1% Trycol 5941 in the spray solutions. Cucumber seedlings (variety Bush Pickle) were grown in soil-less Metro mix, with one plant per pot, and used in the test when 12 to 14 days old. Plants were inoculated with a spore suspension 24 hr following fungicide treatments. Test plants were inoculated with an aqueous spore suspension of Pseudoperonospora cubensis 24 hr after fungicide treatments. After inoculation the plants were kept in a dew room at 22° C. with 100% relative humidity for 24 hr to permit spores to germinate and infect the leaf. The plants were then transferred to a greenhouse set at 20° C. until disease was fully expressed. Fungicide formulation, application and disease assessment on the sprayed leaves followed the procedures as described in the Example A.

[3] = system: Magnaporthe grisea; Anamorph: Pyricularia oryzae; conditions: 1DP test at 100 ppm, rice
Rhyncosporium secalis = test: Fungicidal activity: barley scald (RHYNSE); conditions: 1DP test at 100 ppm
Description: Technical grades of materials were dissolved in acetone, which were then mixed with nine volumes of water containing 110 ppm Triton X-100. The fungicide solutions were applied onto wheat seedlings using an automated booth sprayer to run-off. All sprayed plants were allowed to air dry prior to further handling. All fungicides were evaluated using the aforementioned method for their activity vs. all target diseases, unless stated otherwise. Wheat leaf blotch and brown rust activity were also evaluated using track spray applications, in which case the fungicides were formulated as EC formulations, containing 0.1% Trycol 5941 in the spray solutions. Barley seedlings (variety Harrington) were propagated in soil-less Metro mix, with each pot having 8 to 12 plants, and used in the test when first leaf was fully emerged. Test plants were inoculated by an aqueous spore suspension of Rhyncosporium secalis 24 hr after fungicide treatments. After inoculation the plants were kept in a dew room at 20° C. with 100% relative humidity for 48 hr. The plants were then transferred to a greenhouse set at 20° C. for disease to develop. Fungicide formulation, application and disease assessment on the sprayed leaves followed the procedures as described in the Example A.

Uncinula necator = test: Fungicidal activity: grape powdery mildew (UNCINE); conditions: 1DP test at 100 ppm
Description: Technical grades of materials were dissolved in acetone, which were then mixed with nine volumes of water containing 110 ppm Triton X-100. The fungicide solutions were applied onto wheat seedlings using an automated booth sprayer to run-off. All sprayed plants were allowed to air dry prior to further handling. All fungicides were evaluated using the aforementioned method for their activity vs. all target diseases, unless stated otherwise. Wheat leaf blotch and brown rust activity were also evaluated using track spray applications, in which case the fungicides were formulated as EC formulations, containing 0.1% Trycol 5941 in the spray solutions. Grape seedlings (variety Carignane) were grown in soil-less Metro mix, with one plant per pot, and used in the test when approximately 1 month old. Plants were inoculated 24 hr after fungicide treatment by shaking spores from infected leaves over test plants. Plants were maintained in a greenhouse set at 20° C. until disease was fully developed. Fungicide formulation, application and disease assessment on sprayed leaves followed the procedures as described in the Example A.

Compound	PHAKPA 1DP disease control (Phakopsora pachyrhizi)	PHAKPA 3DC disease control (Phakopsora pachyrhizi)	ALTESO disease control (Alternaria solani)	CERCBE disease control (Cercospora beticola)	COLLLA disease control [1]	LEPTNO disease control (Parastagonospora nodorum)	PSPECU disease control [2]	PYRIOR disease control [3]	RHYNSE disease control (Rhyncosporium secalis)	UNCINE disease control (Uncinula necator)
COc1ccnc(C(=O)NCC(=O)O[C@@H](C)[C@H](C)c2ccc(F)cc2C)c1OC(=O)C(C)C [Example 197]	D (≤0)	D (≤0)								
COc1ccnc(C(=O)N[C@H](C(=O)O[C@@H](C)[C@H](C)c2ccc(F)cc2C)C(C)C)c1OC(=O)C(C)C [Example 210]		D (≤0)								
COc1ccnc(C(=O)N[C@H](C(=O)O[C@H](C)[C@H](C)c2ccc(F)cc2C)C(C)C)c1OC(=O)C(C)C [Example 214]	B (≤80)									
COc1ccnc(C(=O)N[C@@H](C)C(=O)O[C@H](C)[C@@H](C)c2ccccc2C)c1OC(=O)C(C)C [Example 225]	D (≤0)									
COc1ccnc(C(=O)N[C@@H](C)C(=O)O[C@H](C)[C@H](C)c2ccccc2C)c1OC(C)=O [Example 263]			B (≤80)	B (≤80)	D (≤0)	B (≤80)	B (≤80)	B (≤80)	B (≤80)	A (>80)
COc1ccnc(C(=O)N[C@@H](C)C(=O)O[C@@H](C)[C@@H](C)c2ccccc2C)c1OC(C)=O [Example 264]			B (≤80)	A (>80)	B (≤80)	A (>80)	B (≤80)	A (>80)	B (≤80)	A (>80)
COc1ccnc(C(=O)N[C@@H](C)C(=O)O[C@@H](C)[C@@H](C)c2ccccc2C)c1OC(=O)C(C)C [Example 266]			B (≤80)	B (≤80)	D (≤0)	A (>80)	D (≤0)	A (>80)	B (≤80)	A (>80)
